# Measurements taken from patent publication US20230086702A1, “SUBSTITUTED 2-AMINO-PYRAZOLYL-[1,2,4]TRIAZOLO[1,5A]PYRIDINE DERIVATIVES AND USE THEREOF” (The Johns Hopkins University, priority 2019, published 2023).
# Tests used:
# DLK = target: T1, DLK (Homo sapiens, UniProt Q12852); experiment: DLK biochemical assay (TR-FRET, MKK7 phosphorylation)
# T1 construct: 10 nM DLK, catalytic domain, Carna Biosiences; purchased Carna Biosciences ('Carna Biosiences' [sic])
# T1 sequence (Q12852 125-366 limits assumed): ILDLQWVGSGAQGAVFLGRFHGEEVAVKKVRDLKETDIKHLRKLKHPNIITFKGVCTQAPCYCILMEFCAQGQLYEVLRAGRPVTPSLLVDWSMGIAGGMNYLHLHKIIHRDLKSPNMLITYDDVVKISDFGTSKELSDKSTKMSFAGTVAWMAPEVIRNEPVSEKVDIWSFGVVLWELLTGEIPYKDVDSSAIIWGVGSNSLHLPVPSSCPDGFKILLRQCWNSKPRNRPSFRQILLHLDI
# Procedure, shortened: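 DLK catalytic domain (10 nM) phosphorylates His-MKK7 (15 nM) at 60 μM ATP for 90 min at RT in pH 7.5 Hepes buffer (final concentrations). Phospho-T275/S277 is detected by TR-FRET (Eu anti-phospho donor, XL665 anti-His acceptor) after 16 h at 37° C (1536 format) or 4° C (384 format).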
# LZK = target: T2, LZK (Homo sapiens, UniProt O43283); experiment: LZK biochemical assay (TR-FRET, MKK7 phosphorylation)
# T2 construct: 10 nM LZK, catalytic domain, Carna Biosiences in assay buffer; purchased Carna Biosciences ('Carna Biosiences' [sic])
# T2 sequence (O43283 168-409 limits assumed): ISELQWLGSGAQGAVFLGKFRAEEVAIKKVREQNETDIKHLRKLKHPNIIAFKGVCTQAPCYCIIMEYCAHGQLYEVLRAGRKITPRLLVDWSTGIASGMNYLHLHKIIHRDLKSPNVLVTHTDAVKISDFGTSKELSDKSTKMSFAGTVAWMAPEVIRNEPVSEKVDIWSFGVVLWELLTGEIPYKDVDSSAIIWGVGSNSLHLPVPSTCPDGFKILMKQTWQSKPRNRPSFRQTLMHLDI
# Procedure, shortened: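 LZK catalytic domain (10 nM) phosphorylates His-MKK7 (15 nM) with 15 µM ATP, all final, for 90 min at RT in HEPES buffer pH 7.5 with MgCl2. Phospho-T275/S277 detected by TR-FRET (Eu anti-phospho donor, XL665 anti-His acceptor) after 16 h at 32 °C in EDTA stop buffer. Inhibition lowers the 665/Eu ratio.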
SMILES,IC50 (DLK) [nM],IC50 (LZK) [nM]
"CCC(c1ccc(C(F)(F)F)nc1)n1cc(-c2cc(-c3cnn(CC(F)(F)F)c3)c3nc(N)nn3c2)cn1 (single isomer, unassigned) [II-113, 8-[1-(2,2,2-trifluoroethyl)-1H-pyrazol-4-yl]-6-(1-{1-[6-(trifluoromethyl)pyridin-3-yl]propyl}-1H-pyrazol-4-yl)[1,2,4]triazolo[1,5-a]pyridin-2-amine]",23,59
"CCC(c1ccc(OC(F)(F)F)nc1)n1cc(-c2cc(-c3cnn(CC(F)(F)F)c3)n3nc(N)nc3c2)cn1 (single isomer, unassigned) [II-115, 5-[1-(2,2,2-Trifluoroethyl)-1H-pyrazol-4-yl]-7-(1-{1-[6-(trifluoromethoxy)pyridin-3-yl]propyl}-1H-pyrazol-4-yl)[1,2,4]triazolo[1,5-a]pyridin-2-amine]",67,138
"CC[C@@H](c1ccc(OC(F)(F)F)nc1)n1cc(-c2cc(-c3cnn(CC(F)(F)F)c3)n3nc(N)nc3c2)cn1 (single isomer, unassigned) [II-116, 5-[1-(2,2,2-Trifluoroethyl)-1H-pyrazol-4-yl]-7-(1-{1-[6-(trifluoromethoxy)pyridin-3-yl]propyl}-1H-pyrazol-4-yl)[1,2,4]triazolo[1,5-a]pyridin-2-amine]",9.7,22
"Nc1nc2c(-c3cnn(CC(F)(F)F)c3)cc(-c3cnn(C(c4ccc(C(F)(F)F)nc4)C4CCOCC4)c3)cn2n1 (single isomer, unassigned) [II-118, 6-(1-{Tetrahydro-2H-pyran-4-yl[6-(trifluoromethyl)pyridin-3-yl]methyl}-1H-pyrazol-4-yl)-8-[1-(2,2,2-trifluoroethyl)-1H-pyrazol-4-yl][1,2,4]triazolo[1,5-a]pyridin-2-amine]",0.6,2.6
"CCC(c1ccc(C(F)(F)F)cc1)n1cc(-c2cc(-c3cnn(CC(F)(F)F)c3)n3nc(N)nc3c2)cn1 (single isomer, unassigned) [II-130, 5-[1-(2,2,2-Trifluoroethyl)-1H-pyrazol-4-yl]-7-(1-{1-[4-(trifluoromethyl)phenyl]propyl}-1H-pyrazol-4-yl)[1,2,4]triazolo[1,5-a]pyridin-2-amine]",120,670
"CCC(c1ccc(C(F)(F)F)cc1)n1cc(-c2cc(-c3cnn(CC(F)(F)F)c3)n3nc(N)nc3c2)cn1 (single isomer, unassigned) [II-131, 5-[1-(2,2,2-Trifluoroethyl)-1H-pyrazol-4-yl]-7-(1-{1-[4-(trifluoromethyl)phenyl]propyl}-1H-pyrazol-4-yl)[1,2,4]triazolo[1,5-a]pyridin-2-amine]",25,165
"CCC(c1ccc(C(F)(F)F)cc1)n1cc(-c2cc(-c3cnn(C4CCCC4)c3)n3nc(N)nc3c2)cn1 (single isomer, unassigned) [II-134, 5-(1-Cyclopentyl-1H-pyrazol-4-yl)-7-(1-{1-[4-(trifluoromethyl)phenyl]propyl}-1H-pyrazol-4-yl)[1,2,4]triazolo[1,5-a]pyridin-2-amine]",32,44
"CC(C)C(c1ccc(C(F)(F)F)nc1)n1cc(-c2cc(-c3cnn(C4CCCC4)c3)n3nc(N)nc3c2)cn1 (single isomer, unassigned) [II-144, 5-(1-Cyclopentyl-1H-pyrazol-4-yl)-7-(1-{2-methyl-1-[6-(trifluoromethyl)pyridin-3-yl]propyl}-1H-pyrazol-4-yl)[1,2,4]triazolo[1,5-a]pyridin-2-amine]",27,57
"Nc1nc2cc(-c3cnn(C(c4ccccc4)C4CCOCC4)c3)cc(-c3cnn(CC(F)(F)F)c3)n2n1 (single isomer, unassigned) [II-147, 7-{1-[Phenyl(tetrahydro-2H-pyran-4-yl)methyl]-1H-pyrazol-4-yl}-5-[1-(2,2,2-trifluoroethyl)-1H-pyrazol-4-yl][1,2,4]triazolo[1,5-a]pyridin-2-amine]",2.3,73
"Nc1nc2c(-c3ccc(=O)n(C(F)F)c3)cc(-c3cnn(C(c4ccc(C(F)(F)F)nc4)C4CCOCC4)c3)cn2n1 (single isomer, unassigned) [II-154, 5-[2-Amino-6-(1-{tetrahydro-2H-pyran-4-yl[6-(trifluoromethyl)pyridin-3-yl]methyl}-1H-pyrazol-4-yl)[1,2,4]triazolo[1,5-a]pyridin-8-yl]-1-(difluoromethyl)pyridin-2(1H)-one]",6.2,15
"Nc1nc2c(-c3ccc(=O)n(CC(F)F)c3)cc(-c3cnn(C(c4ccc(C(F)(F)F)nc4)C4CCOCC4)c3)cn2n1 (single isomer, unassigned) [II-157, 5-[2-Amino-6-(1-{tetrahydro-2H-pyran-4-yl[6-(trifluoromethyl)pyridin-3-yl]methyl}-1H-pyrazol-4-yl)[1,2,4]triazolo[1,5-a]pyridin-8-yl]-1-(2,2-difluoroethyl)pyridin-2(1H)-one]",5.9,12

# Continued by falling IC50 (DLK), values first:
IC50 (DLK) [nM],IC50 (LZK) [nM],SMILES
45,130,"CCC(c1ccc(C(F)(F)F)cc1)n1cc(-c2cc(-c3cnn(C4CCCC4)c3)n3nc(N)nc3c2)cn1 (single isomer, unassigned) [II-133, 5-(1-Cyclopentyl-1H-pyrazol-4-yl)-7-(1-{1-[4-(trifluoromethyl)phenyl]propyl}-1H-pyrazol-4-yl)[1,2,4]triazolo[1,5-a]pyridin-2-amine]"
40,720,"COc1cc(C(C(C)C)n2cc(-c3cc(-c4cnn(CC(F)(F)F)c4)n4nc(N)nc4c3)cn2)ccn1 (single isomer, unassigned) [II-137, 7-{1-[1-(2-Methoxypyridin-4-yl)-2-methylpropyl]-1H-pyrazol-4-yl}-5-[1-(2,2,2-trifluoroethyl)-1H-pyrazol-4-yl][1,2,4]triazolo[1,5-a]pyridin-2-amine]"
23,140,"CC(C)C(c1ccc(C(F)(F)F)nc1)n1cc(-c2cc(-c3cnn(CC(F)(F)F)c3)n3nc(N)nc3c2)cn1 (single isomer, unassigned) [II-141, 7-(1-{2-Methyl-1-[6-(trifluoromethyl)pyridin-3-yl]propyl}-1H-pyrazol-4-yl)-5-[1-(2,2,2-trifluoroethyl)-1H-pyrazol-4-yl][1,2,4]triazolo[1,5-a]pyridin-2-amine]"
22,170,"Nc1nc2cc(-c3cnn(C(c4ccccc4)C4CCOCC4)c3)cc(-c3cnn(CC(F)(F)F)c3)n2n1 (single isomer, unassigned) [II-148, 7-{1-[Phenyl(tetrahydro-2H-pyran-4-yl)methyl]-1H-pyrazol-4-yl}-5-[1-(2,2,2-trifluoroethyl)-1H-pyrazol-4-yl][1,2,4]triazolo[1,5-a]pyridin-2-amine]"
11,11,"Nc1nc2cc(-c3cnn(C(c4ccc(C(F)(F)F)nc4)C4CCOCC4)c3)cc(-c3cnn(CC(F)(F)F)c3)n2n1 (single isomer, unassigned) [II-151, 7-(1-{Tetrahydro-2H-pyran-4-yl[6-(trifluoromethyl)pyridin-3-yl]methyl}-1H-pyrazol-4-yl)-5-[1-(2,2,2-trifluoroethyl)-1H-pyrazol-4-yl][1,2,4]triazolo[1,5-a]pyridin-2-amine]"
4.7,16,"Nc1nc2c(-c3cnn(CC(F)(F)F)c3)cc(-c3cnn(C(c4ccc(C(F)(F)F)nc4)C4CCOCC4)c3)cn2n1 (single isomer, unassigned) [II-119, 6-(1-{Tetrahydro-2H-pyran-4-yl[6-(trifluoromethyl)pyridin-3-yl]methyl}-1H-pyrazol-4-yl)-8-[1-(2,2,2-trifluoroethyl)-1H-pyrazol-4-yl][1,2,4]triazolo[1,5-a]pyridin-2-amine]"
1.4,4.9,"Nc1nc2cc(-c3cnn(C(c4ccc(C(F)(F)F)nc4)C4CCOCC4)c3)cc(-c3cnn(CC(F)(F)F)c3)n2n1 (single isomer, unassigned) [II-150, 7-(1-{Tetrahydro-2H-pyran-4-yl[6-(trifluoromethyl)pyridin-3-yl]methyl}-1H-pyrazol-4-yl)-5-[1-(2,2,2-trifluoroethyl)-1H-pyrazol-4-yl][1,2,4]triazolo[1,5-a]pyridin-2-amine]"
1,3.1,"Nc1nc2c(-c3ccc(=O)n(C(F)F)c3)cc(-c3cnn(C(c4ccc(C(F)(F)F)nc4)C4CCOCC4)c3)cn2n1 (single isomer, unassigned) [II-155, 5-[2-Amino-6-(1-{tetrahydro-2H-pyran-4-yl[6-(trifluoromethyl)pyridin-3-yl]methyl}-1H-pyrazol-4-yl)[1,2,4]triazolo[1,5-a]pyridin-8-yl]-1-(difluoromethyl)pyridin-2(1H)-one]"
